Experiments:
[1] = tested on: AAT derived from Chamaemelum nobile; experiment: Substrate specificity of AAT derived from Chamaemelum nobile; type: biochemical; settings: 0.12 mM acyl-CoA, pH 8.5, butyl methacrylate = 100%; for Relative activity with ethanol: 40 mM ethanol; for Relative activity with n-butanol: 40 mM n-butanol; for Relative activity with methanol: 40 mM methanol; for Relative activity with n-hexanol: 40 mM n-hexanol
Experimental: The substrate specificity of AAT was evaluated by the purified fraction obtained by MonoQ 5/50 GL column chromatography in Example 9.
In a 2-mL capacity screw vial, a reaction solution (50 mM Tris-HCl (pH 8.5), 40 mM alcohol, 0.12 mM acyl-CoA) was prepared, into which the purified fraction was added to be 500 μL. The vial was sealed and the mixture was reacted at 30° C. for one hour.
After the reaction was completed, 50 μL of 10 mM 2-hexanon was added as the internal sstandard, and solvent extraction was conducted using 200 μL octane or hexane. Centrifugation was conducted and 8 μL of the separated liquid was injected into GC to measure the ester produced through the enzymatic reaction. The amount of ester was calculated by the calibration curve using an internal standard method. The GC measuring conditions were set the same as in Example 9 except that the column temperature was adjusted appropriately for each of the target esters (see Table 4). To determine the quantity of n-butyl propionate, since the present column is unable to separate its peak from the peak of n-butanol, the absolute calibration curve method was employed under the GC-MS analysis conditions the same as in Example 1 (however, temperature conditions were changed to 80° C.→1 min→10° C./min→200° C.·5 min).
Relative activity values are shown based on the specific activity of butyl methacrylate set as 100%.

[2] = tested on: AAT derived from Chamaemelum nobile; experiment: Km of AAT derived from Chamaemelum nobile; type: biochemical; settings: 40 mM n-hexanol, Tris-HCl pH 8.5, 30° C., 2 hours
Experimental: The Km values for methacrylyl-CoA and acetyl-CoA were measured using the purified fraction obtained by MonoQ 5/50 GL column chromatography in Example 9. A 500 μL reaction solution was prepared by adding the purified fraction, 40 mM n-hexanol and methacrylyl-CoA or acetyl-CoA at each concentration to a 50 mM Tris-HCl buffer (pH 8.5). The vial was sealed, and reaction was carried out at 30° C. for 2 hours.
After the reaction was completed, the same GC analysis as in Example 10 was conducted to measure the ester produced in the enzymatic reaction. The […] (Km) was applied to a Michaelis-Menten expression to calculate the values using a Kaleidagraph software made by HULINKS.

Row | Km [2] [µM] | SMILES | Relative activity with ethanol [1] [%] | Relative activity with n-butanol [1] [%] | Relative activity with methanol [1] [%] | Relative activity with n-hexanol [1] [%]
1 | – | CC(C)C(=O)SCCNC(=O)CCNC(=O)[C@H](O)C(C)(C)COP(=O)(O)OP(=O)(O)OC[C@H]1O[C@@H](n2cnc3c(N)ncnc32)[C@H](O)[C@@H]1OP(=O)(O)O [isobutyryl-CoA] | 5 | 114 | – | –
2 | – | CCCC(=O)SCCNC(=O)CCNC(=O)[C@H](O)C(C)(C)COP(=O)(O)OP(=O)(O)OC[C@H]1O[C@@H](n2cnc3c(N)ncnc32)[C@H](O)[C@@H]1OP(=O)(O)O [butyryl-CoA] | – | 40 | – | –
3 | – | CCC(=O)SCCNC(=O)CCNC(=O)[C@H](O)C(C)(C)COP(=O)(O)OP(=O)(O)OC[C@H]1O[C@@H](n2cnc3c(N)ncnc32)[C@H](O)[C@@H]1OP(=O)(O)O [propionyl-CoA] | – | 136 | 4 | –
4 | 711 | CC(=O)SCCNC(=O)CCNC(=O)[C@H](O)C(C)(C)COP(=O)(O)OP(=O)(O)OC[C@H]1O[C@@H](n2cnc3c(N)ncnc32)[C@H](O)[C@@H]1OP(=O)(O)O [acetyl-CoA] | – | 37 | – | 84
5 | – | CCCCCC(=O)SCCNC(=O)CCNC(=O)[C@H](O)C(C)(C)COP(=O)(O)OP(=O)(O)OC[C@H]1O[C@@H](n2cnc3c(N)ncnc32)[C@H](O)[C@@H]1OP(=O)(O)O [hexanoyl-CoA] | 11 | 21 | – | –
6 | 41 | C=C(C)C(=O)SCCNC(=O)CCNC(=O)[C@H](O)C(C)(C)COP(=O)(O)OP(=O)(O)OC[C@H]1O[C@@H](n2cnc3c(N)ncnc32)[C@H](O)[C@@H]1OP(=O)(O)O [methacrylyl-CoA] | 4 | 100 | 1 | 182

Reference: US10570426B2, “Method for producing methacrylic acid ester and novel methacrylic acid ester synthetase” (Mitsubishi Chemical Corporation, priority 2014, dated 2020)
